# Target: T1, MyD88^TIR (Homo sapiens, UniProt Q99836)
# T1 construct: MyD88 (residues 148–296); 6xHis; made in house; host or cells: E. coli BL21 (DE3)
# Assay: T‐Surf phage library (P8 and P3) selection against MyD88^TIR, four rounds, NGS read counts
# Format: binding
# Settings: for P3_MyD88 Rank (after) / P3_MyD88 Rank (before): P3 library; for P8_MyD88 Rank (after) / P8_MyD88 Rank (before): P8 library; for Population: 4th round of selection against MyD88 TIR, share of NGS reads
# How it was run: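 Read counts come from NGS of phage pools enriched over four selection rounds on the plate‐coated TIR domain (5 µg mL^−1). Each round: 1 h phage binding at room temperature after 0.2% BSA blocking, Tween washes, acid elution, amplification in E. coli TG1 with M13KO7 helper.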
# [1] = P8_MyD88: rank by NGS read count after grouping
# [2] = P8_MyD88: rank by NGS read count before grouping
# [3] = selection against MyD88, rank after grouping
# [4] = selection against MyD88, rank before grouping
# [5] = P8_MyD88: rank by count after grouping
# [6] = P8_MyD88: rank by count before grouping
# [7] = selection against MyD88 TIR, rank by count after grouping
# [8] = selection against MyD88 TIR, rank by count before grouping
# [9] = P3_MyD88: rank by count after grouping
# [10] = P3_MyD88: rank by count before grouping
# [11] = 4R selection against MyD88, rank after grouping
# [12] = 4R selection against MyD88, rank before grouping
# [13] = P8_MyD88 pool: P8 T-Surf phage library
# [14] = P3_MyD88 pool: P3 T-Surf phage library
# [15] = selection against MyD88, rank by count after grouping
# [16] = selection against MyD88, rank by count before grouping
# T1 sequence (Q99836 148-296): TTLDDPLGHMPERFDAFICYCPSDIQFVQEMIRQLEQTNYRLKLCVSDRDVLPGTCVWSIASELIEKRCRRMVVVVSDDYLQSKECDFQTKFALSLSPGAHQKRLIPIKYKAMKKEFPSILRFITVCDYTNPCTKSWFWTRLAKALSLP
substance,measurement,setting,value
YAASPWWFDELVKILE,Rank (after),[1],906
same,Rank (before),[2],1733
SSWREGLCRLLELRNK,P3_MyD88 Rank (after),[3],501
same,P3_MyD88 Rank (before),[4],3264
DPQDLDCFYERLVNLF,Rank (after),[5],408
same,Rank (before),[6],2740
YTALTNCGFHTFRDNV,P3_MyD88 Rank (after),[7],208
same,P3_MyD88 Rank (before),[8],1649
YAASPWWFDELVTILG,Rank (after),[5],433
same,Rank (before),[6],1725
YASSSWYLDELVRSLW,Rank (after),[1],897
same,Rank (before),[2],1860
EWIREQLRPALKERL,Rank (after),[9],112
same,Rank (before),[10],995
AWVGDYLLPNLEGPAG,P8_MyD88 Rank (after),[11],672
same,P8_MyD88 Rank (before),[12],2318
LGYQWNEWEYLVGIEE,P8_MyD88 Rank (after),[3],538
same,P8_MyD88 Rank (before),[4],3327
RGFHWTEWENFVDIED,Rank (after),[1],968
same,Rank (before),[2],3399
SMTPLSDFWKELALVL,Rank (after),[5],97
same,Rank (before),[6],101
same,Population,[13],0.0231%
YLRADDSWFEEKLLFA,P8_MyD88 Rank (after),[3],574
same,P8_MyD88 Rank (before),[4],2062
NQWRSSPTAWASLSFA,P3_MyD88 Rank (after),[3],530
same,P3_MyD88 Rank (before),[4],3474
SSFREGLWRLLELSKR,Population,[14],0.00291%
SSLREGLWRLLELGKK,P3_MyD88 Rank (after),[11],597
same,P3_MyD88 Rank (before),[12],3255
GRYDELFMTETDERKC,P3_MyD88 Rank (after),[11],603
same,P3_MyD88 Rank (before),[12],1852
WDFGTAGKNPGSAWHH,Rank (after),[1],910
same,Rank (before),[2],1573
YAASPRWLDDLVNIVG,P8_MyD88 Rank (after),[3],521
same,P8_MyD88 Rank (before),[4],1754
SDVDHLTYLVRVRLCR,P8_MyD88 Rank (after),[15],728
same,P8_MyD88 Rank (before),[16],3748
ARFKDMIINKWRTALKERLP,P3_MyD88 Rank (after),[15],744
same,P3_MyD88 Rank (before),[16],1964
SSWWALEELAHIIE,P8_MyD88 Rank (after),[11],634
same,P8_MyD88 Rank (before),[12],3803
EWIREQRRSALKERLP,P3_MyD88 Rank (after),[11],639
same,P3_MyD88 Rank (before),[12],2171
SCFCEELCCVLELSKK,P3_MyD88 Rank (after),[11],656
same,P3_MyD88 Rank (before),[12],2938
WALNELQQILHARELF,Rank (after),[5],445
same,Rank (before),[6],1549
YAFTGHLQRYLVQRCV,P3_MyD88 Rank (after),[7],234
same,P3_MyD88 Rank (before),[8],1531
NGHESEIITVIVDTIV,P3_MyD88 Rank (after),[7],221
same,P3_MyD88 Rank (before),[8],3351
DPQDLDWFYERLVSPL,Rank (after),[5],99
same,Rank (before),[6],396
SSFLQGLWRLLELSKK,P3_MyD88 Rank (after),[3],534
same,P3_MyD88 Rank (before),[4],3122
YTALTNSGFLSFRDTD,Rank (after),[9],428
same,Rank (before),[10],1661
DPQDLDWLYERPVSQF,P8_MyD88 Rank (after),[3],552
same,P8_MyD88 Rank (before),[4],2816
YNFISQLYDALQRNRI,P3_MyD88 Rank (after),[15],710
same,P3_MyD88 Rank (before),[16],1743
FDARTWFFQEMGIIVE,P8_MyD88 Rank (after),[11],603
same,P8_MyD88 Rank (before),[12],1307
SSFREGLWRLL*LSKK,Population,[14],0.00291%
SSSFALHELATILEAL,Rank (after),[5],412
same,Rank (before),[6],1290
YLQWGYSWFWDRLRFA,P3_MyD88 Rank (after),[7],259
same,P3_MyD88 Rank (before),[8],1558
LKWGEPYCWSKLRYAM,Rank (after),[9],127
same,Rank (before),[10],2450
LGYQWIAGEYFVGIED,Rank (after),[1],1021
same,Rank (before),[2],3320
DPLHLDWHYERLVSTD,P8_MyD88 Rank (after),[15],680
same,P8_MyD88 Rank (before),[16],2615
AEFWERLRMTVLETME,Rank (after),[5],398
same,Rank (before),[6],1024
LKEEHCHQALEKAGKL,Rank (after),[9],460
same,Rank (before),[10],2535
YAFTGHFQRYLVQRGV,Rank (after),[9],422
same,Rank (before),[10],1485
YLRADDSWFWEKLLQIA,P8_MyD88 Rank (after),[3],553
same,P8_MyD88 Rank (before),[4],2056
WDFSGNMKQALDRLCY,P8_MyD88 Rank (after),[11],613
same,P8_MyD88 Rank (before),[12],1571
DPLVMVWLYVRPVSLF,P8_MyD88 Rank (after),[3],556
same,P8_MyD88 Rank (before),[4],2609
WRDALNNISSIFGWVA,P8_MyD88 Rank (after),[15],764
same,P8_MyD88 Rank (before),[16],1648
NDLLHVWSSKANSLVG,P3_MyD88 Rank (after),[3],527
same,P3_MyD88 Rank (before),[4],3389
AVVRETQKIQPQRKNA,Rank (after),[9],466
same,Rank (before),[10],1885
KNLLNELVSKTIRTFM,Rank (after),[9],470
same,Rank (before),[10],3790
YASSWWALEELLRILY,P8_MyD88 Rank (after),[3],568
same,P8_MyD88 Rank (before),[4],1849
QGGDEITPSLFKAFKD,P3_MyD88 Rank (after),[7],265
same,P3_MyD88 Rank (before),[8],1150
LGTHEISKEMKIFATI,P3_MyD88 Rank (after),[3],571
same,P3_MyD88 Rank (before),[4],2323
GEDTRYTYRPSACDP,P3_MyD88 Rank (after),[15],730
same,P3_MyD88 Rank (before),[16],1850
YKLALHFRDWLVGVH,Rank (after),[1],901
same,Rank (before),[2],2137
WALVVLLQILHARELF,P8_MyD88 Rank (after),[3],490
same,P8_MyD88 Rank (before),[4],1403
LGYHWIDWAYFVGIEE,P8_MyD88 Rank (after),[7],242
same,P8_MyD88 Rank (before),[8],3250
PQDLVWFFEGLVSLIL,Rank (after),[1],952
same,Rank (before),[2],3420
SWYLDEVAKIIDAMKE,Rank (after),[5],133
same,Rank (before),[6],144
same,Population,[13],0.0116%
NYGSNSWALNKLLEIL,P8_MyD88 Rank (after),[3],492
same,P8_MyD88 Rank (before),[4],3834
PQDLEWFYERLFSQM,Rank (after),[5],96
same,Rank (before),[6],102
same,Population,[13],0.0227%
PQDLAWLYERPLSLIL,Rank (after),[1],1015
same,Rank (before),[2],3424
PDEVKRTVGLTFSLSL,P8_MyD88 Rank (after),[15],739
same,P8_MyD88 Rank (before),[16],3407
NQQRFGGKVDAWKAAL,P3_MyD88 Rank (after),[7],281
same,P3_MyD88 Rank (before),[8],3542
YLLAGDFWIFFTLLTA,P8_MyD88 Rank (after),[15],738
same,P8_MyD88 Rank (before),[16],1964
SELSVVDDGSVSPLGM,Rank (after),[9],472
same,Rank (before),[10],3068
SENYATSTWAPDELVR,P3_MyD88 Rank (after),[3],496
same,P3_MyD88 Rank (before),[4],2998
SENYATSPWALDELVRIVEA,P3_MyD88 Rank (after),[7],258
same,P3_MyD88 Rank (before),[8],1170
EWLREQLRSARKERLP,Rank (after),[9],442
same,Rank (before),[10],2126
AVGKETNKIQTPLKNA,Rank (after),[9],177
same,Rank (before),[10],1886
LIRAPSVHDFRGFVGI,P3_MyD88 Rank (after),[11],672
same,P3_MyD88 Rank (before),[12],2369
DWVLGYRLPNLEGPAG,P8_MyD88 Rank (after),[15],741
same,P8_MyD88 Rank (before),[16],2395
YAASPWWLVELVQIVG,P8_MyD88 Rank (after),[15],752
same,P8_MyD88 Rank (before),[16],1758
LFWDRLLYSLHVTE,P8_MyD88 Rank (after),[3],569
same,P8_MyD88 Rank (before),[4],3208
YSFTGQLHRYMVQRGV,P3_MyD88 Rank (after),[11],649
same,P3_MyD88 Rank (before),[12],1434
LTEEIVNHILKRLAEL,Rank (after),[5],170
same,Rank (before),[6],200
EIVKFVLAKLVHLEHP,Rank (after),[9],409
same,Rank (before),[10],2224
GEDTRLPLPAICMRP,P3_MyD88 Rank (after),[15],740
same,P3_MyD88 Rank (before),[16],1831
DPQALDWLYERLVSLF,P8_MyD88 Rank (after),[7],203
same,P8_MyD88 Rank (before),[8],2685
IDDEHLTYLGRLLLSR,P8_MyD88 Rank (after),[11],580
same,P8_MyD88 Rank (before),[12],3649
DPQDLDWFYERQVSLL,Rank (after),[5],106
same,Rank (before),[6],568
HYTDSYFALHELALLL,Rank (after),[5],128
same,Rank (before),[6],138
same,Population,[13],0.0119%
LQNQWELALTKKTKLV,P3_MyD88 Rank (after),[15],733
same,P3_MyD88 Rank (before),[16],2336
CALDELLHILHARELF,P8_MyD88 Rank (after),[15],724
same,P8_MyD88 Rank (before),[16],1346
NELVNVWSSKANSQVG,P3_MyD88 Rank (after),[15],691
same,P3_MyD88 Rank (before),[16],3451
SADYDDVGDRLIRMIE,Rank (after),[1],1024
same,Rank (before),[2],3747
YAFTGHLHSYLVQRSV,Rank (after),[9],125
same,Rank (before),[10],1530
LGYHWIDWEYFVALK,P8_MyD88 Rank (after),[7],235
same,P8_MyD88 Rank (before),[8],599
SSCREGLWSLLELSKK,P3_MyD88 Rank (after),[3],565
same,P3_MyD88 Rank (before),[4],3262
NQWRNALTAAANLSLS,P3_MyD88 Rank (after),[11],675
same,P3_MyD88 Rank (before),[12],3507
LGYHWLNWESFVGIED,P8_MyD88 Rank (after),[3],547
same,P8_MyD88 Rank (before),[4],3345
WALDELLQILQARELS,P8_MyD88 Rank (after),[15],721
same,P8_MyD88 Rank (before),[16],1462
TSTWALDELWLILEQR,Population,[13],0.0262%
SWGQSFLKSPLGWLFA,P3_MyD88 Rank (after),[7],272
same,P3_MyD88 Rank (before),[8],2936
HLLKEFYKKQITAFKD,P3_MyD88 Rank (after),[7],194
same,P3_MyD88 Rank (before),[8],2773
NQWHNALTAAANLSGW,Population,[14],0.00291%
SELRVVDDGSVSPPNL,P3_MyD88 Rank (after),[3],570
same,P3_MyD88 Rank (before),[4],3040
SSFREGLWRLLELCKK,Population,[14],0.0032%
SRLCVMCWKNCVLPN,P3_MyD88 Rank (after),[11],624
same,P3_MyD88 Rank (before),[12],3279
YASSSWYLDALVQILHARELF,Rank (after),[5],388
same,Rank (before),[6],1856
DHHLDLPRGKAIQPDILG,P3_MyD88 Rank (after),[3],554
same,P3_MyD88 Rank (before),[4],2014

# Source: article PMC11714206, “Massively Parallel Screening of Toll/Interleukin‐1 Receptor (TIR)‐Derived Peptides Reveals Multiple Toll‐Like Receptors (TLRs)‐Targeting Immunomodulatory Peptides” (Advanced Science, 2024)
